Experimental data published in paper PMC6054692, “Library screening of cell-penetrating peptide for BY-2 cells, leaves of Arabidopsis, tobacco, tomato, poplar, and rice callus” (Scientific Reports, 2018).

Tested on: BY-2 cells
Experiment: Cell penetration efficiency into BY-2 suspension culture cells (CLSM of TAMRA-labeled CPP)
Settings: negative control without CPP, 15 min, 1 h, 3 h and 6 h at 26 °C, BY-2 cells 3 days after subculture
Description: To evaluate the cell penetration efficiency of the 55 CPPs into BY-2 suspension culture cells, we first optimized the CPP concentration and cell density using BP100 as a model CPP. The cell penetration efficiency of CPP into BY-2 cells was determined based on the ratio of numbers of cell with and without TAMRA signals of CPP by confocal laser scanning microscopy (CLSM) (Fig. 2). […] Thus, we used the BY-2 cells at 3 days after subculture as well as the incubation time of 3 hours for all the experiments in this study.
Suspension-cultured tobacco (Nicotiana tabacum) cv. BY-2 cells were provided by the RIKEN Bio Resource Center. […]
The penetration efficiency of CPPs into BY-2 suspension cells and young true leaves of N. benthamiana, A. thaliana, Moneymaker tomato, O. sativa Nipponbare, and poplar, and O. sativa callus was determined using confocal laser scanning microscopy (CLSM, ZeissLSM 700, Carl Zeiss, Oberkochen, Germany). The intracellular localization of TAMRA-labeled CPP was observed using excitation at 555 nm for the detection of TAMRA fluorescence. The total number of cells was counted using differential interfering contrast images. The efficiency was determined as follows: Cellpenetrationefficiency(%)=(thenumberofstainedcells)/(thenumberoftotalcells)×100 Various BY-2 cell concentrations (230 to >1000 cells/µL) of BY-2 cells were tested to determine the optimal cell concentration. […]

With `CN(C)c1ccc2c(-c3ccc(C(=O)O)cc3C(=O)[O-])c3ccc(N(C)C)cc3[o+]c2c1` [TAMRA, 5-carboxytetramethylrhodamine] the “Penetration of TAMRA alone into BY-2 cells” value was “could not penetrate”.
